Results on three molecules are retold here after patent publication US20260174786A1, “A NITROGEN-CONTAINING SPIROCYCLIC COMPOUND, PHARMACEUTICAL COMPOSITION AND USE THEREOF” (Prime Gene Therapeutics Co., Ltd., priority 2022, published 2026).

A short description of data set [1]: Stability assessment of compounds at room temperature under 92.5% humidity (LC-MS). It is filed as physicochemical. The note with it: 92.5% humidity (open), after 5 days. The protocol: Taking the compound of Example 21 and KM-001-E1 in WO2021154966A1 as examples, the stability thereof was compared:
Compound of Example 21 and KM-001-E1 were accurately weighed and placed in penicillin bottles, and placed at room temperature under 92.5% humidity (open) conditions for 5-10 days to investigate the stability of the compounds.
• instrument: Thermo U3000-ISQEC • column: Xtimate UHPLC C18 1.8 μm 4.6*50 mm • Column temperature: 35° C. • wavelength: 210 nm, 254 nm • mobile phase A: 0.05% formic acid aqueous solution; mobile phase B: 0.05% formic acid acetonitrile; gradient: 30% B 0-1.2 min, 95% B 1.2-3.3 min, 30% B 3.3-4.5 min;
Analyzing the degradation impurities of each compound under 92.5% humidity conditions using LC-MS: The main impurities in Example 21 had m/z 427.17, with a retention time of 2.55 minutes. After being left for 10 days, the peak area proportion was only 0.3%; The main impurities in KM-001-E1 has m/z=431.14 and m/z=415.16, with retention times of 2.31 minutes and 2.64 minutes, respectively. […] Based on LC-MS and NMR data analysis, it can be inferred that the main impurities produced in Example 21 are ketones, while the main impurities produced in KM-001-E1 are aldehydes and carboxylic acids.

For data set [2], the target named is T1, hTRPV3 (Homo sapiens, UniProt Q8NET8).
T1 construct: expressed in transfected cells; host or cells: HEK-293
T1 sequence (Q8NET8 1-790): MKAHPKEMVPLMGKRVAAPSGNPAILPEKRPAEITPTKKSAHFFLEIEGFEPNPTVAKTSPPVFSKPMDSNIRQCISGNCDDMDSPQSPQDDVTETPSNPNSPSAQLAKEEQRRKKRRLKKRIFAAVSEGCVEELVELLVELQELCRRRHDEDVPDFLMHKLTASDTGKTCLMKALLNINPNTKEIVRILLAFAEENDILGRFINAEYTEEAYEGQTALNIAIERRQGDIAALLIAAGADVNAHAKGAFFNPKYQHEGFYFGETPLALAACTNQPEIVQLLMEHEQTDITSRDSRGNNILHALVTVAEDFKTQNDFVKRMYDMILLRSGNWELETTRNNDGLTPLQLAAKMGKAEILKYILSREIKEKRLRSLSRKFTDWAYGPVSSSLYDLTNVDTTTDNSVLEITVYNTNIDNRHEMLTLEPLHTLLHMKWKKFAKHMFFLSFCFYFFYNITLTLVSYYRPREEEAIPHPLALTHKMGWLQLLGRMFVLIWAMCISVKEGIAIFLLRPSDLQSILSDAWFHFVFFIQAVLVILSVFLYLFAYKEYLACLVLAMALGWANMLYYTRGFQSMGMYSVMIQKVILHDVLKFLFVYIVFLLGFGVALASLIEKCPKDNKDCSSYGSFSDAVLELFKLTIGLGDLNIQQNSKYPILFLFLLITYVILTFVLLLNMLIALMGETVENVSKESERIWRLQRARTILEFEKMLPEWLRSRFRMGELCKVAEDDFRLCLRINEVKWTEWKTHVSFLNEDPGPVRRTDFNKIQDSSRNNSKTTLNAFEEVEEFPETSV
The data set can be described thus: Whole cell patch clamp inhibition rate test on HEK-293 cells instantaneously expressing TRPV3. It is filed as cell-based. The note with it: HEK293; hTRPV3, single concentration 0.3 μM. The essentials: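 HEK-293 cells transiently transfected with TRPV3, recorded next-but-one day by whole-cell patch clamp at room temperature: holding −80 mV, ramp −100 to 100 mV over 100 ms every 5 s, peak current monitored. Ascending concentrations perfused, 5 min each; each cell its own control, at least two cells per concentration.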

As usually defined, the inhibition is the change of the read-out against control, counted positive when it falls.

As to `O=C(c1ccc(F)cn1)N1CC[C@H](c2ccc(-c3ccccc3C3CC3)cc2CO)C1` [KM-001-E1], in data set [1], the “peak area proportion of main impurity (m/z=415.16)” value came to 2.43% and the “peak area proportion of main impurity (m/z=431.14)” value is listed as 2.48%.
`O=C(c1ccc(C(F)(F)F)cn1)N1CCC2(CC(O)c3cc(-c4ccccc4C4CC4)ccc32)C1` (stereo not shown) [Example 50, (5-(2-cyclopropylphenyl)-3-hydroxy-2,3-dihydrospiro[indene-1,3′-pyrrolidine]-1′-yl)(5-(trifluoromethyl)pyridin-2-yl) ketone]: the inhibition at 0.3 µM in data set [2] lay in the range of 70 to 100%.
Still for that read-out and setting: for `O=C(c1ccc(F)cn1)N1CCC2(C1)OB(O)c1ccccc12` (stereo not shown) [Example 8, (5-fluoropyridin-2-yl) (1-hydroxy-1H-spiro[benzo[c][1,2]oxaborolane-3,3′-pyrrolidine]-1′-yl) ketone] the value was under 25%.
